Experimental data as given in patent US20040220268A1, “Compound that directly stimulates phospholipase C activity” (priority 2003, published 2004).

Biological target: T1, PLC γ2 (Homo sapiens, UniProt P16885)
T1 sequence (P16885 1-1265): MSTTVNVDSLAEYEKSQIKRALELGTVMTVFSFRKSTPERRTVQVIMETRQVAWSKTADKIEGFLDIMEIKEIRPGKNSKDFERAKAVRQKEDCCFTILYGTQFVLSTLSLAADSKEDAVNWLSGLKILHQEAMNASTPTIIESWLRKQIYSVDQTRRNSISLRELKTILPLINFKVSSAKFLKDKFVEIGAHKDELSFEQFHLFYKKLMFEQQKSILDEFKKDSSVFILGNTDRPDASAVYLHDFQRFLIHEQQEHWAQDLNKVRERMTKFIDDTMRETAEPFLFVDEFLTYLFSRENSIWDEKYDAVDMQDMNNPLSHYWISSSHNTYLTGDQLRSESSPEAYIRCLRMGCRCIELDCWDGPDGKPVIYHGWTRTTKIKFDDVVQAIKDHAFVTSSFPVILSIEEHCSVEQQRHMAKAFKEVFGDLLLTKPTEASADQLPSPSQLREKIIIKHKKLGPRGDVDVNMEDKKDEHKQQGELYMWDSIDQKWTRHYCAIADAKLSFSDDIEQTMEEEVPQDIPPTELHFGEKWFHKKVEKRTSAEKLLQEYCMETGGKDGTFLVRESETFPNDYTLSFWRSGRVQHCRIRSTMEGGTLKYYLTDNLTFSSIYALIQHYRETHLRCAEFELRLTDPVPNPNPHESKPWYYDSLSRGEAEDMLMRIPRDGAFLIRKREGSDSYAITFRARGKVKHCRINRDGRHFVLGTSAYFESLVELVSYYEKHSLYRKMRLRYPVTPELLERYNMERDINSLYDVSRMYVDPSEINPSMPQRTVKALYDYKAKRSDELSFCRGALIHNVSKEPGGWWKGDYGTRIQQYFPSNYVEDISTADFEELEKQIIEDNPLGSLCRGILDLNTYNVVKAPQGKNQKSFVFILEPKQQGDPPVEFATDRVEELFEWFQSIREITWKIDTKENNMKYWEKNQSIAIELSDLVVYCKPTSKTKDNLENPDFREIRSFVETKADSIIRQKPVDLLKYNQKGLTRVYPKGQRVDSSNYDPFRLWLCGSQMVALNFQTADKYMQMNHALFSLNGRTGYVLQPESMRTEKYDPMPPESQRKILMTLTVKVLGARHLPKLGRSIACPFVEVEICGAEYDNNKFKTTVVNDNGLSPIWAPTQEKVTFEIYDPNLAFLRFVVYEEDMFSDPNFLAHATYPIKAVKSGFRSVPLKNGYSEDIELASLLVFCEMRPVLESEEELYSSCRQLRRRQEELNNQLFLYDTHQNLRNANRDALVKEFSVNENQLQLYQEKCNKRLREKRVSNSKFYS
Assay: Phosphoinositide hydrolysis in vitro
Format: biochemical
Details: 25 μM; purified isozyme
Procedure: The hydrolyzing activity of PtdIns-4,5-P2 was measured on mixed phospholipid vesicles containing 120 μM phosphatidylethanolamine, 30 μM PtdIns-4,5-P2, and 1 μCi/ml [3H] PtdIns-4,5-P2. Purified PLC β2, substrates, and the chemicals (2.5, 5, 10, 20, and 25 μM of m-3M3FBS or of o-3M3FBS) were coincubated (A), 25 μM of m-3M3FBS or o-3M3FBS, and phospholipid substrates were mixed with purified PLC β3, γ1, 2, or δ1 (B). Reactions were performed for 10 min at 37° C. in a 200 μl reaction mixture containing lipid micelles (5 μM [^3H] PtdIns-4,5-P2, 20,000 cpm). Reactions were stopped by adding 1 ml of CHCl3:CH3OH:HCl (50:50:0.3, v/v/v). Inositol trisphosphates were extracted with 0.5 ml of 1 M HCl/5 mM EGTA, and the radioactivity in the upper aqueous phase was measured. Data are presented as means ±S. E. M. of three independent experiments (A, B).
PLC activity was assayed using [^3H] PtdIns-4,5-P2 as a substrate (Min et al., 1993). PtdIns-4,5-P2-hydrolyzing activity was measured with mixed phospholipid micelles containing 120 μM phosphatidylethanolamine, 30 μM PtdIns-4,5-P2, and 1 μCi/ml [^3H] PtdIns-4,5-P2. The lipids, in chloroform, were dried under a stream of nitrogen gas, suspended in assay buffer (20 mM HEPES pH 7.0, 120 mM NaCl, 2 mM MgCl2, 40 or 100 μM CaCl2, and 1 mg/ml bovine albumin serum (Bayer, Leverkusen, Germany)), and sonicated. All proteins added to the reaction mixture were dialyzed overnight against the assay buffer. Incubation was performed for 10 min at 37° C. in a 200 μl reaction mixture containing lipid micelles (5 μM [3H] PtdIns-4,5-P2, 20,000 cpm). The reaction was stopped by adding 2 ml of CHCl3: CH3OH: HCl (50: 50: 0.3, v/v/v). The inositol triphosphates were extracted with 0.5 ml of 1 N HCl, and radioactivities in the upper aqueous phase were measured.

Compound	activity of PLC gamma2
Cc1cc(C)c(S(=O)(=O)Nc2cccc(C(F)(F)F)c2)c(C)c1 [m-3M3FBS, 2,4,6-Trimethyl-N-(meta 3-trifluoromethyl-phenyl)-benzenesulfonamide]	augmented the activity
Cc1cc(C)c(S(=O)(=O)Nc2ccccc2C(F)(F)F)c(C)c1 [o-3M3FBS, 2,4,6-Trimethyl-N-(ortho 3-trifluoromethyl-phenyl)-benzenesulfonamide, reference compound]	did not affect
